Assay results: publication PMC8762745 (ACS Medicinal Chemistry Letters, 2021)

Target: T1, human TAAR1 receptor (Homo sapiens, UniProt Q96RJ0)
T1 sequence (Q96RJ0 1-339): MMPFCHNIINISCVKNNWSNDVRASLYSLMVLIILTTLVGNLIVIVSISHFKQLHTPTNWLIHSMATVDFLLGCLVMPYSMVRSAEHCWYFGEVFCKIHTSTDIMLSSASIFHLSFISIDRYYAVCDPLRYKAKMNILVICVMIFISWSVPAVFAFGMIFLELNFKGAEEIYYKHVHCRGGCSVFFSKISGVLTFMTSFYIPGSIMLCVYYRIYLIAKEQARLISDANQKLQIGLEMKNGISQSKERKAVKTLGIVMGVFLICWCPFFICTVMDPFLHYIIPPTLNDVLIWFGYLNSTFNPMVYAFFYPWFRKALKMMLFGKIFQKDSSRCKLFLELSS
Experiment: Human TAAR1 agonist assay
Details: for fold less active for TAAR1 than β-PEA (2): EC50 ratio versus β-PEA (2); for fold less potent for TAAR1 than racemic ulotaront 20: EC50 ratio versus racemic ulotaront 20

NC[C@H](O)c1ccc(O)cc1 [6a, (−)-octopamine, reference compound]
fold less active for TAAR1 than p-tyramine (4): 21 fold

NC[C@@H](O)c1ccc(O)cc1 [6b, (+)-octopamine, reference compound]
fold less active for TAAR1 than p-tyramine (4): 54 fold

CNC[C@H](O)c1ccc(O)cc1 [7a, (−)-synephrine, reference compound]
fold reduced TAAR1 activity compared to 6a (EC50 ratio versus (−)-octopamine 6a): approximately 3 fold

CNCCc1ccccc1 [compound 3, N-methylphenethylamine, reference compound]
fold less active for TAAR1 than β-PEA (2): approximately 10 fold

NCCc1ccc(O)cc1 [compound 4, p-tyramine, reference compound]
fold less active for TAAR1 than β-PEA (2): about 5 fold

NCCc1cccc(O)c1 [compound 5, m-tyramine, reference compound]
fold less active for TAAR1 than β-PEA (2): ~23 fold

NCCc1c[nH]c2ccccc12 [compound 10, tryptamine, reference compound]
fold less active for TAAR1 than β-PEA (2): about 150 fold

CNC[C@]1(C)OCCc2ccsc21 [compound 21]
fold less potent for TAAR1 than ulotaront: > 1000 fold

NC[C@@H]1OCCc2ccsc21 [compound 22]
fold more potent for TAAR1 than ulotaront: about 11 fold

c1cc2c(s1)[C@H](CN1CCCC1)OCC2 [compound 24]
fold less potent for TAAR1 than ulotaront: 189 fold

NCC[C@@H]1OCCc2ccsc21 [compound 25]
fold reduced TAAR1 activity compared to N-demethylated analogue 22 (EC50 ratio versus 22): 67 fold

CNCC1OCCCc2ccsc21 (stereo not shown) [compound 26]
fold less potent for TAAR1 than racemic ulotaront 20: approximately 6 fold

NCC1OCCCc2ccsc21 (stereo not shown) [compound 27]
fold more potent for TAAR1 compared to 26 (EC50 ratio versus 26): about 5 fold

CNCC1OCCc2cscc21 (stereo not shown) [compound 28]
fold less potent for TAAR1 than racemic ulotaront 20: ~6 fold

CNC[C@@H]1OCCc2sccc21 [compound 29]
fold less potent for TAAR1 than ulotaront: 3 fold

NCCc1cccs1 [compound 30, thiophen-2-ylethanamine]
fold more potent for TAAR1 than the other ring opened thiophene (31) (EC50 ratio versus 31): approximately 3 fold
